From patent publication US4981854A, “A-aryl-4-quinolone-3-carboxylic acids” (Bayer Aktiengesellschaft, priority 1985, dated 1991)
Values after ≈ are worked out from the molar mass of the structure shown.

Key:
Assay in all cases: Minimum inhibitory concentration, agar dilution test (Denley Multipoint inoculator, Isosensitest medium)
Type in all cases: cell-based
E. coli 4418 = conditions: Escherichia coli
From the text: (§1) The MIC values of some of the compounds according to the invention are given in the following table. | Minimum inhibitory concentration mcg/ml^(x) | ^(x) Agar dilution test/Denley Multipoint inoculator Isosensitest | medium

E. coli 455/7 = conditions: Escherichia coli
From the text: as §1

E. coli Neum. = conditions: Escherichia coli
From the text: as §1

Klebsiella pneum. 63 = system: Klebsiella pneum. 63
From the text: as §1

Klebsiella pneum. 8085 = system: Klebsiella pneum. 8085
From the text: as §1

Klebsiella spec. 6179 = system: Klebsiella spec. 6179
From the text: as §1

Proteus vulg. 1017 = system: Proteus vulg. 1017
From the text: as §1

Pseudomonas aerug. W. = system: Pseudomonas aerug. W.
From the text: as §1

Staphylococcus aur. 133 = system: Staphylococcus aur. 133
From the text: as §1

Staphylococcus aur. 1756 = system: Staphylococcus aur. 1756
From the text: as §1

[1] = system: Streptococcus faecalis 27101; conditions: Enterococcus faecalis
From the text: as §1

| SMILES | MIC (E. coli 4418) [µg/mL] | MIC (E. coli 455/7) [µg/mL] | MIC (E. coli Neum.) [µg/mL] | MIC (Klebsiella pneum. 63) [µg/mL] | MIC (Klebsiella pneum. 8085) [µg/mL] | MIC (Klebsiella spec. 6179) [µg/mL] | MIC (Proteus vulg. 1017) [µg/mL] | MIC (Pseudomonas aerug. W.) [µg/mL] | MIC (Staphylococcus aur. 133) [µg/mL] | MIC (Staphylococcus aur. 1756) [µg/mL] | MIC [1] [µg/mL] |
| --- | --- | --- | --- | --- | --- | --- | --- | --- | --- | --- | --- |
| CN1CCN(c2c(F)cc3c(=O)c(C(=O)O)cn(-c4ccc(F)cc4)c3c2F)CC1 [Example 1, 6,8-Difluoro-1,4-dihydro-4-oxo-1-(4-fluorophenyl)-7-(4-methyl-1-piperazinyl)-quinoline-3-carboxylic acid] | 0.25 (≈ 0.599 µM) | 16 (≈ 38.3 µM) | 0.125 (≈ 0.299 µM) | 0.25 (≈ 0.599 µM) | 0.125 (≈ 0.299 µM) | 0.5 (≈ 1.2 µM) | 0.5 (≈ 1.2 µM) | 8 (≈ 19.2 µM) | 0.5 (≈ 1.2 µM) | 0.5 (≈ 1.2 µM) | 4 (≈ 9.58 µM) |
| CC1CN(c2c(F)cc3c(=O)c(C(=O)O)cn(-c4ccc(F)cc4)c3c2F)CCN1 (centres unmarked) [Example 2, 6,8-Difluoro-1,4-dihydro-4-oxo-1-(4-fluorophenyl)-7-(3-methyl-1-piperazinyl)-quinoline-3-carboxylic acid] | 0.125 (≈ 0.299 µM) | 8 (≈ 19.2 µM) | ~0.015 (≈ 0.0359 µM) | 0.125 (≈ 0.299 µM) | 0.06 (≈ 0.144 µM) | 0.25 (≈ 0.599 µM) | 0.25 (≈ 0.599 µM) | 4 (≈ 9.58 µM) | 0.5 (≈ 1.2 µM) | 0.5 (≈ 1.2 µM) | 4 (≈ 9.58 µM) |
| O=C(O)c1cn(-c2ccc(F)cc2)c2c(F)c(N3CCNCC3)c(F)cc2c1=O [Example 3, 6,8-Difluoro-1,4-dihydro-4-oxo-1-(4-fluorophenyl)-7-(1-piperazinyl)-quinoline-3-carboxylic acid] | 0.06 (≈ 0.149 µM) | 8 (≈ 19.8 µM) | ~0.015 (≈ 0.0372 µM) | 0.06 (≈ 0.149 µM) | ~0.015 (≈ 0.0372 µM) | 0.06 (≈ 0.149 µM) | 0.03 (≈ 0.0744 µM) | 1 (≈ 2.48 µM) | 0.25 (≈ 0.62 µM) | 0.25 (≈ 0.62 µM) | 4 (≈ 9.92 µM) |
| CCn1cc(C(=O)O)c(=O)c2cc(F)c(N3CCNCC3)cc21 [Norfloxacin, reference compound] | 0.125 (≈ 0.391 µM) | 8 (≈ 25.1 µM) | 0.125 (≈ 0.391 µM) | 0.25 (≈ 0.783 µM) | 0.25 (≈ 0.783 µM) | 2 (≈ 6.26 µM) | 0.06 (≈ 0.188 µM) | 2 (≈ 6.26 µM) | 1 (≈ 3.13 µM) | 1 (≈ 3.13 µM) | 1 (≈ 3.13 µM) |
